The results in this text go back to patent US20210221785A1, “AMINO-PYRIMIDONYL DERIVATIVES, A PROCESS FOR THEIR PREPARATION AND PHARMACEUTICAL COMPOSITIONS CONTAINING THEM” (LES LABORATOIRES SERVIER, priority 2018, published 2021).

The structures appear in SMILES notation.

Test [1] addresses T1, His-His-USP7 (aa208-560, |C315A|) (Homo sapiens, UniProt Q93009, C315A).
T1 construct: His-His-USP7 (aa208-560, |C315A|); His-His (N)
Briefly: Evaluation of the inhibition of USP7 by the Fluorescence Intensity (FLINT) readings. The test is classed as biochemical. The settings on record: 0.25 nM His-His-USP7, compound incubated 60 minutes at 30° C., 500 nM Ubiquitin-Rhodamine-110 substrate; 50% reduction in kinetic rate. In short, it runs like this: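 IC50 reflects 50% reduction in kinetic rate of rhodamine-110 release (Ex485/Em535, reads every 3 min over 21 min), normalised to DMSO and no-enzyme controls, from an 11-point 4-parameter fit. Substrate is 500 nM Ub-Rh110, added after 60 min, 30 °C preincubation of compound with 0.25 nM USP7 aa208–560 C315A. Buffer is Bicine pH 8.0 with 10% DMSO.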

The subject of test [2] is Z138 mantle cell lymphoma tumour cell lines. Nature of the test: In vitro cytotoxicity, MTT assay. The class given is cell-based. The settings on record: Homo sapiens, Z-138, 96 h, Z138 cells exposed to the test compounds for 96 hours; cell viability vs DMSO treated cells. Put shortly: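 Z138 cells exposed to compounds for 96 hours, then MTT added for 4 hours. Viable cells quantified from formazan absorbance at 540 nm.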

T1 sequence (Q93009 208-560 C315A): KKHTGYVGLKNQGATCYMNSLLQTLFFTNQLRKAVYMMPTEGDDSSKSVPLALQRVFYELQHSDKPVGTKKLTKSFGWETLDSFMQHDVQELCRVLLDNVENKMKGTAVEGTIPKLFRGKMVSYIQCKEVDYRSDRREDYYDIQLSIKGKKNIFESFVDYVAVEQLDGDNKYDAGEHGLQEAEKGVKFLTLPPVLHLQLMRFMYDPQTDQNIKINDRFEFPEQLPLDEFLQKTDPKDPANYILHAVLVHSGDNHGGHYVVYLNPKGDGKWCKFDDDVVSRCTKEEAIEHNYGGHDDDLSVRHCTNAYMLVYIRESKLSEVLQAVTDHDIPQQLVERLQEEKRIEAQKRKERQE

As usually defined, the IC50 is the concentration that gives 50% inhibition. Lower therefore signals inhibition by little substance. Turning to `CO[C@]1(C#Cc2cccc(N)n2)CC[C@@H](C(=O)N2CC[C@](O)(Cn3cnc(Oc4ccc(F)cc4)c(N)c3=O)C(F)(F)C2)[C@H](c2ccccc2)C1` [Example 164, 5-amino-3-{[(4S)-1-[(1R,2R,4R)-4-[2-(6-aminopyridin-2-yl)ethynyl]-4-methoxy-2-phenylcyclohexanecarbonyl]-3,3-difluoro-4-hydroxypiperidin-4-yl]methyl}-6-(4-fluorophenoxy)-3,4-dihydropyrimidin-4-one], the half-inhibitory concentration (IC50) amounted to 24.6 nM in test [1] and 0.0165 µM in test [2].

For the compound `CO[C@]1(C#Cc2cccnn2)CC[C@@H](C(=O)N2CC[C@](O)(Cn3cnc(Oc4ccc(F)cc4)c(N)c3=O)C(F)(F)C2)[C@H](c2ccccc2)C1` [Example 165, 5-amino-3-{[(4S)-3,3-difluoro-4-hydroxy-1-{[(1R,2R,4R)-4-methoxy-2-phenyl-4-[2-(pyridazin-3-yl)ethynyl]cyclohexyl]carbonyl}piperidin-4-yl]methyl}-6-(4-fluorophenoxy)pyrimidin-4-one], the IC50 in test [1] was determined as 5.57 nM; in test [2], 0.00415 µM.

Turning to `CO[C@]1(C#Cc2ccccn2)CC[C@@H](C(=O)N2CC[C@](O)(Cn3cnc(Oc4ccc(F)cc4)c(N)c3=O)C(F)(F)C2)[C@H](c2ccccc2)C1` [Example 166, 5-amino-3-{[(4S)-3,3-difluoro-4-hydroxy-1-[(1R,2R,4R)-4-methoxy-2-phenyl-4-[2-(pyridin-2-yl)ethynyl]cyclohexanecarbonyl]piperidin-4-yl]methyl}-6-(4-fluorophenoxy)-3,4-dihydropyrimidin-4-one], the IC50 in test [1] is 11.2 nM; in test [2] it was 0.00943 µM.

Take `Nc1c(Oc2ccc(F)cc2)ncn(C[C@@]2(O)CCN(C(=O)[C@@H]3CC[C@](F)(C#Cc4ncccn4)C[C@H]3c3ccccc3)CC2(F)F)c1=O` [Example 167, 5-amino-3-{[(4S)-3,3-difluoro-1-[(1R,2R,4R)-4-fluoro-2-phenyl-4-[2-(pyrimidin-2-yl)ethynyl]cyclohexanecarbonyl]-4-hydroxypiperldin-4-yl]methyl}-6-(4-fluorophenoxy)-3,4-dihydropyrimidin-4-one]: the figures for the IC50 in test [1] and in test [2] were 27.2 nM and 0.0124 µM, respectively.

As for `Nc1c(Oc2ccc(F)cc2)ncn(C[C@@]2(O)CCN(C(=O)[C@@H]3CC[C@](F)(C#Cc4cccnn4)C[C@H]3c3ccccc3)CC2(F)F)c1=O` [Example 168, 5-amino-3-{[(4S)-3,3-difluoro-1-{[(1R,2R,4R)-4-fluoro-2-phenyl-4-[2-(pyridazin-3-yl)ethynyl]cyclohexyl]carbonyl}-4-hydroxypiperidin-4-yl]methyl}-6-(4-fluorophenoxy)pyrimidin-4-one], the results for the IC50 in test [1] and in test [2] were 3.48 nM and 0.00157 µM, respectively.

On to `CO[C@@H]1CC[C@@](C#Cc2cc(C)cnn2)(C(=O)N2CC[C@](O)(Cn3cnc(Oc4ccc(F)cc4)c(N)c3=O)C(F)(F)C2)[C@@H](c2ccccc2)C1` [Example 169, 5-amino-3-{[(4S)-3,3-difluoro-4-hydroxy-1-[(1R,2R,4R)-4-methoxy-1-[2-(5-methylpyridazin-3-yl)ethynyl]-2-phenylcyclohexanecarbonyl]piperidin-4-yl]methyl}-6-(4-fluorophenoxy)-3,4-dihydropyrimidin-4-one], for which the IC50 in test [1] came out at 8.8 nM; in test [2] it was 0.00218 µM.

In the case of `CO[C@]1(C#Cc2nnccc2C)CC[C@@H](C(=O)N2CC[C@](O)(Cn3cnc(Oc4ccc(F)cc4)c(N)c3=O)C(F)(F)C2)[C@H](c2ccccc2)C1` [Example 170, 5-amino-3-{[(4S)-3,3-difluoro-4-hydroxy-1-[(1R,2R,4R)-4-methoxy-4-[2-(4-methylpyridazin-3-yl)ethynyl]-2-phenylcyclohexanecarbonyl]piperidin-4-yl]methyl}-6-(4-fluorophenoxy)-3,4-dihydropyrimidin-4-one], the results for the IC50 in test [1] and in test [2] were 39.8 nM and 0.0219 µM, respectively.

In the case of `Cc1ccnnc1C#C[C@@]1(F)CC[C@@H](C(=O)N2CC[C@](O)(Cn3cnc(Oc4ccc(F)cc4)c(N)c3=O)C(F)(F)C2)[C@H](c2ccccc2)C1` [Example 171, 5-amino-3-{[(4S)-3,3-difluoro-1-[(1R,2R,4R)-4-fluoro-4-[2-(4-methylpyridazin-3-yl)ethynyl]-2-phenylcyclohexanecarbonyl]-4-hydroxypiperidin-4-yl]methyl}-6-(4-fluorophenoxy)-3,4-dihydropyrimidin-4-one], the IC50 came out at 23.8 nM in test [1] and 0.0168 µM in test [2].

Consider `Cc1cnnc(C#C[C@@]2(F)CC[C@@H](C(=O)N3CC[C@](O)(Cn4cnc(Oc5ccc(F)cc5)c(N)c4=O)C(F)(F)C3)[C@H](c3ccccc3)C2)c1` [Example 172, 5-amino-3-{[(4S)-3,3-difluoro-1-[(1R,2R,4R)-4-fluoro-4-[2-(5-methylpyridazin-3-yl)ethynyl]-2-phenylcyclohexanecarbonyl]-4-hydroxypiperidin-4-yl]methyl}-6-(4-fluorophenoxy)-3,4-dihydropyrimidin-4-one], for which the values for the IC50 in test [1] and in test [2] were 5.5 nM and 0.00501 µM, respectively.

`COc1cnnc(C#C[C@@]2(OC)CC[C@@H](C(=O)N3CC[C@](O)(Cn4cnc(Oc5ccc(F)cc5)c(N)c4=O)C(F)(F)C3)C(c3ccccc3)C2)c1` (stereo partly drawn) [Example 173, 5-amino-3-{[(4S)-3,3-difluoro-4-hydroxy-1-[(1R,4R)-4-methoxy-4-[2-(5-methoxypyridazin-3-yl)ethynyl]-2-phenylcyclohexanecarbonyl]piperidin-4-yl]methyl}-6-(4-fluorophenoxy)-3,4-dihydropyrimidin-4-one]: the 50% inhibitory concentration (IC50) came out at 14.6 nM in test [1] and 0.00521 µM in test [2].

Take `CO[C@]1(C#Cc2ncc(C)cn2)CC[C@@H](C(=O)N2CC[C@](O)(Cn3cnc(Oc4ccc(F)cc4)c(N)c3=O)C(F)(F)C2)[C@H](c2ccccc2)C1` [Example 174, 5-amino-3-{[(4S)-3,3-difluoro-4-hydroxy-1-[(1R,2R,4R)-4-methoxy-4-[2-(5-methylpyrimidin-2-yl)ethynyl]-2-phenylcyclohexanecarbonyl]piperidin-4-yl]methyl}-6-(4-fluorophenoxy)-3,4-dihydropyrimidin-4-one]: the IC50 in test [1] is 67.7 nM; in test [2], 0.0174 µM.

For the compound `CO[C@]1(C#Cc2cncnc2)CC[C@@H](C(=O)N2CC[C@](O)(Cn3cnc(Oc4ccc(F)cc4)c(N)c3=O)C(F)(F)C2)[C@H](c2ccccc2)C1` [Example 175, 5-amino-3-{[(4S)-3,3-difluoro-4-hydroxy-1-[(1R,2R,4R)-4-methoxy-2-phenyl-4-[2-(pyrimidin-5-yl)ethynyl]cyclohexanecarbonyl]piperidin-4-yl]methyl}-6-(4-fluorophenoxy)-3,4-dihydropyrimidin-4-one], the figures for the IC50 in test [1] and in test [2] were 54 nM and 0.00998 µM, respectively.

For `CO[C@]1(C#Cc2nccc(C)n2)CC[C@@H](C(=O)N2CC[C@](O)(Cn3cnc(Oc4ccc(F)cc4)c(N)c3=O)C(F)(F)C2)[C@H](c2ccccc2)C1` [Example 176, 5-amino-3-{[(4S)-3,3-difluoro-4-hydroxy-1-[(1R,2R,4R)-4-methoxy-4-[2-(4-methylpyrimidin-2-yl)ethynyl]-2-phenylcyclohexanecarbonyl]piperidin-4-yl]methyl}-6-(4-fluorophenoxy)-3,4-dihydropyrimidin-4-one], the IC50 in test [1] came to 77.2 nM; in test [2], 0.037 µM.

With `CO[C@]1(C#Cc2cnc(C)nc2)CC[C@@H](C(=O)N2CC[C@](O)(Cn3cnc(Oc4ccc(F)cc4)c(N)c3=O)C(F)(F)C2)[C@H](c2ccccc2)C1` [Example 177, 5-amino-3-{[(4S)-3,3-difluoro-4-hydroxy-1-[(1R,2R,4R)-4-methoxy-4-[2-(2-methylpyrimidin-5-yl)ethynyl]-2-phenylcyclohexanecarbonyl]piperidin-4-yl]methyl}-6-(4-fluorophenoxy)-3,4-dihydropyrimidin-4-one], the results for the IC50 in test [1] and in test [2] were 33.3 nM and 0.0218 µM, respectively.
